US9512075B2 (OKAYAMA UNIVERSITY, priority 2012, dated 2016)
Converted amounts (≈) assume the structure as drawn. Read-outs that look alike come from different tables or passages of the source.

Assays:
Type in all cases: cell-based
[1] = system: Staphylococcus aureus Smith strain; test: MIC for Staphylococcus aureus Smith strain; details: read-out: MIC Straphyrococcus aureus Smith
[2] = system: Escherichia coli BE1121 strain; test: MIC for Escherichia coli BE1121 strain; details: Escherichia coli, BE1121STRAIN, read-out: MIC Escherichia coli BE1121
[3] = system: Staphylococcus aureus 209P strain; test: MIC for Staphylococcus aureus 209P strain; details: Staphylococcus aureus, read-out: MIC Straphyrococcus aureus 209P
[4] = system: Clostridium difficile JCM1296 strain; test: microbe, parasite or virus in culture; details: for MIC: Clostridioides difficile, JCM1296, read-out: MIC Clostridium difficile JCM1296
[5] = system: Staphylococcus aureus MRSA No. 17 (methicillin-resistant Staphylococcus aureus: MRSA); test: MIC for Staphylococcus aureus MRSA No. 17; details: read-out: MIC Straphyrococcus aureus MRSA No. 17 (MRSA)
[6] = system: Enterococcus faecalis NCTC12201 strain (vancomycin-resistant Enterococcus: VRE); test: MIC for Enterococcus faecalis NCTC12201 strain (VRE); details: read-out: MIC Enterococcus faecalis NCTC 12201 (VRE)
[7] = system: Escherichia coli K-12 strain; test: MIC for Escherichia coli K-12 strain; details: Escherichia coli, K12STRAIN, read-out: MIC Escherichia coli K12
[8] = system: Clostridium perfringens PB6K strain; test: microbe, parasite or virus in culture; details: CD medium, 37° C. overnight, 10% CO2-containing anaerobic conditions; for MIC: Clostridium perfringens, PB6KSTRAIN, read-out: MIC Clostridium perfringens PB6K, PB6K strain
[9] = system: Enterococcus faecalis 5038 strain; test: MIC for Enterococcus faecalis 5038 strain; details: read-out: MIC Enterococcus faecalis 5038
[10] = Smith strain, regular bouillon medium, 37° C. overnight, turbidity
[11] = BE1121 strain, regular bouillon medium, 37° C. overnight, turbidity
[12] = 209P strain, regular bouillon medium, 37° C. overnight, turbidity
[13] = MRSA No. 17, regular bouillon medium, 37° C. overnight, turbidity
[14] = NCTC12201 strain (VRE), Heart Infusion Broth medium, 37° C. overnight, turbidity
[15] = K-12 strain, regular bouillon medium, 37° C. overnight, turbidity
[16] = 5038 strain, Heart Infusion Broth medium, 37° C. overnight, turbidity

CC(C)[C@H]1CC[C@H](C)CC1OCC(=O)c1c(O)c2ccccc2oc1=O (stereo in doubt) [B006, 4-hydroxy-3-menthyloxyacetylcoumarin]
MIC [1, 10]: 1 µg/mL (≈ 2.79 µM)
MIC [2, 11]: 2 µg/mL (≈ 5.58 µM)
MIC [3, 12]: 1 µg/mL (≈ 2.79 µM)
MIC [4]: 2 µg/mL (≈ 5.58 µM)
MIC [5, 13]: 2 µg/mL (≈ 5.58 µM)
MIC [6, 14]: 2 µg/mL (≈ 5.58 µM)
MIC [7, 15]: 128 µg/mL (≈ 357 µM)
MIC [8]: 1 µg/mL (≈ 2.79 µM)
MIC [9, 16]: 2 µg/mL (≈ 5.58 µM)

CCCCCCCCCC(=O)N1C(=O)C(=C(C)O)c2ccccc21 [A022, N-decanoyl-3-acetyl-2-oxyindole]
MIC [1, 10]: 2 µg/mL (≈ 6.07 µM)
MIC [2, 11]: 16 µg/mL (≈ 48.6 µM)
MIC [3, 12]: 8 µg/mL (≈ 24.3 µM)
MIC [4]: 0.25 µg/mL (≈ 0.759 µM)
MIC [5, 13]: 4 µg/mL (≈ 12.1 µM)
MIC [6, 14]: 1 µg/mL (≈ 3.04 µM)
MIC [7, 15]: 128 µg/mL (≈ 389 µM)
MIC [8]: 4 µg/mL (≈ 12.1 µM)
MIC [9, 16]: 1 µg/mL (≈ 3.04 µM)

CCCCCCCCCC(O)=C1C(=O)N(C(=O)Nc2ccccc2)c2ccc(F)cc21 [A044, N-(phenylaminocarbonyl)-3-decanoyl-5-fluoro-2-oxyindole]
MIC [1, 10]: 0.25 µg/mL (≈ 0.589 µM)
MIC [2, 11]: 256 µg/mL (≈ 603 µM)
MIC [3, 12]: 256 µg/mL (≈ 603 µM)
MIC [4]: < 0.125 µg/mL
MIC [5, 13]: 256 µg/mL (≈ 603 µM)
MIC [6, 14]: 0.5 µg/mL (≈ 1.18 µM)
MIC [7, 15]: 256 µg/mL (≈ 603 µM)
MIC [8]: < 0.125 µg/mL
MIC [9, 16]: 1 µg/mL (≈ 2.36 µM)

CCCCCCCCCC(O)=C1C(=O)N(C(C)=O)c2ccc(Br)cc21 [A026, N-acetyl-5-bromo-3-decanoyl-2-oxyindole]
MIC [1, 10]: 0.25 µg/mL (≈ 0.612 µM)
MIC [2, 11]: 8 µg/mL (≈ 19.6 µM)
MIC [3, 12]: 4 µg/mL (≈ 9.8 µM)
MIC [4]: < 0.125 µg/mL
MIC [5, 13]: 4 µg/mL (≈ 9.8 µM)
MIC [6]: < 0.125 µg/mL
MIC [7, 15]: 128 µg/mL (≈ 313 µM)
MIC [8]: 0.25 µg/mL (≈ 0.612 µM)
MIC ([9]; 5038STRAIN): < 0.125 µg/mL

CCCCCCCCCC(O)=C1C(=O)N(C(=O)Nc2ccc(OC(F)(F)F)cc2)c2ccccc21 [A053, N-(4-(trifluoromethoxy)phenylaminocarbonyl)-3-decanoyl-2-oxyindole]
MIC [1, 10]: 256 µg/mL (≈ 522 µM)
MIC [2, 11]: 128 µg/mL (≈ 261 µM)
MIC [3, 12]: 256 µg/mL (≈ 522 µM)
MIC [4]: 16 µg/mL (≈ 32.6 µM)
MIC [5, 13]: 256 µg/mL (≈ 522 µM)
MIC [6, 14]: 128 µg/mL (≈ 261 µM)
MIC [7, 15]: 128 µg/mL (≈ 261 µM)
MIC [8]: 32 µg/mL (≈ 65.2 µM)
MIC [9, 16]: 128 µg/mL (≈ 261 µM)

CCCCCCCCC(O)=C1C(=O)N(C(=O)Nc2ccccc2)c2ccc(F)cc21 [A059, N-(phenylaminocarbonyl)-5-fluoro-3-nonanoyl-2-oxyindole]
MIC [1, 10]: 0.5 µg/mL (≈ 1.22 µM)
MIC [2]: 256 µg/mL (≈ 624 µM)
MIC ([3]; 209P): 64 µg/mL (≈ 156 µM)
MIC [4]: 8 µg/mL (≈ 19.5 µM)
MIC [5, 13]: 64 µg/mL (≈ 156 µM)
MIC [6, 14]: 25 µg/mL (≈ 60.9 µM)
MIC [7]: 128 µg/mL (≈ 312 µM)
MIC [8]: 4 µg/mL (≈ 9.74 µM)
MIC [9, 16]: 0.5 µg/mL (≈ 1.22 µM)

CCCCCCCCCC(O)=C1C(=O)N(C(=O)Nc2ccc(Br)cc2)c2ccccc21 [A039, N-(4-bromophenylaminocarbonyl)-3-decanoyl-2-oxyindole]
MIC [1, 10]: 256 µg/mL (≈ 527 µM)
MIC [2, 11]: 256 µg/mL (≈ 527 µM)
MIC [3, 12]: 256 µg/mL (≈ 527 µM)
MIC [4]: 64 µg/mL (≈ 132 µM)
MIC [5, 13]: 256 µg/mL (≈ 527 µM)
MIC [6, 14]: 256 µg/mL (≈ 527 µM)
MIC [7, 15]: 256 µg/mL (≈ 527 µM)
MIC [8]: 64 µg/mL (≈ 132 µM)
MIC [9, 16]: 256 µg/mL (≈ 527 µM)

CCCCCCCCCC(O)=C1C(=O)N(C(=O)Nc2ccc(OC)cc2)c2ccc(F)cc21 [A048, N-(4-methoxyphenylaminocarbonyl)-3-decanoyl-5-fluoro-2-oxyindole]
MIC [1]: 256 µg/mL (≈ 563 µM)
MIC [2, 11]: 256 µg/mL (≈ 563 µM)
MIC [3, 12]: 256 µg/mL (≈ 563 µM)
MIC [4]: 32 µg/mL (≈ 70.4 µM)
MIC ([5]; MRSA): 256 µg/mL (≈ 563 µM)
MIC [6]: 256 µg/mL (≈ 563 µM)
MIC [7, 15]: 256 µg/mL (≈ 563 µM)
MIC [8]: 256 µg/mL (≈ 563 µM)
MIC [9, 16]: 128 µg/mL (≈ 282 µM)

CCCCCCCCCCOC(C)C(O)=C1C(=O)N(C(=O)NCCCC)c2ccccc21 (stereo not drawn) [A020, N-(butylaminocarbonyl)-3-(2-decyloxypropionyl)-2-oxyindole]
MIC [1, 10]: 1 µg/mL (≈ 2.25 µM)
MIC [2, 11]: 256 µg/mL (≈ 576 µM)
MIC [3, 12]: 256 µg/mL (≈ 576 µM)
MIC [4]: 0.5 µg/mL (≈ 1.12 µM)
MIC [5, 13]: 256 µg/mL (≈ 576 µM)
MIC [6, 14]: 1 µg/mL (≈ 2.25 µM)
MIC [7, 15]: 256 µg/mL (≈ 576 µM)
MIC [8]: 4 µg/mL (≈ 9 µM)
MIC [9, 16]: 0.5 µg/mL (≈ 1.12 µM)

CCCCCCCCCC(=O)N1C(=O)C(=C(O)c2ccc(Cl)cc2)c2ccccc21 [A060, N-decanoyl-3-(4-chlorobenzoyl)-2-oxyindole]
MIC [1]: 1 µg/mL (≈ 2.35 µM)
MIC [2, 11]: 128 µg/mL (≈ 301 µM)
MIC [3, 12]: 64 µg/mL (≈ 150 µM)
MIC [4]: 0.5 µg/mL (≈ 1.17 µM)
MIC ([5]; MRSA): 16 µg/mL (≈ 37.6 µM)
MIC [6]: 1 µg/mL (≈ 2.35 µM)
MIC [7, 15]: 128 µg/mL (≈ 301 µM)
MIC [8]: 1 µg/mL (≈ 2.35 µM)
MIC ([9]; 5038STRAIN): 1 µg/mL (≈ 2.35 µM)

CCCCCCCCCCOCC(O)=C1C(=O)N(C(=O)OC(C)(C)C)c2cc(Cl)ccc21 [A012, N-Boc-3-decyloxyacetyl-6-chloro-2-oxyindole]
MIC [1, 10]: 256 µg/mL (≈ 549 µM)
MIC [2, 11]: 256 µg/mL (≈ 549 µM)
MIC [3, 12]: 256 µg/mL (≈ 549 µM)
MIC Clostridium difficile JCM1296 [4]: 32 µg/mL (≈ 68.7 µM)
MIC [5, 13]: 256 µg/mL (≈ 549 µM)
MIC [6, 14]: 256 µg/mL (≈ 549 µM)
MIC [7, 15]: 256 µg/mL (≈ 549 µM)
MIC Clostridium perfringens PB6K ([8]; PB6K strain): 32 µg/mL (≈ 68.7 µM)
MIC [9, 16]: 256 µg/mL (≈ 549 µM)
